Where a SMILES comes first, the peptide text is derived from it. [ ]: non-standard residue; d: D form. The star is where a group is joined. Palmitoyl = CCCCCCCCCCCCCCCC(=O)* Where only a bound is given, the exact number is not on record here.

Experimental findings from patent US9056891B2, “Synthetic peptide inhibitors of Wnt pathway” (The United States of America, as represented by the …, priority 2010, dated 2015) are described below.

One assay concerns HT-29 cells. The format is cell-based. The note with it: 48 h. The protocol: (§1) HeLa, U3A, RKO, HCT-116, and HT-29 cells were exposed to the CT-HC-1, CT-HC-3, CT-HC-5, and CT-HC-8 inhibitors of Example 1 for 48 hours in medium containing 1% bovine fetal serum, and the resulting cell number was evaluated using a MTT assay. Each of these cell lines is relevant to the evaluation of Wnt signaling. Cervical carcinoma HeLa cells overexpress β-catenin (see, e.g., Lee et al., Int. J. Cancer, 124(2): 287-297 (2009); and Lee et al., Gynecol. Oncol., 109(2): 270-274 (2008)). β-catenin is activated in colon carcinoma RKO due to mutation in CDX2 (see, e.g., Dang et al., Oncogene, 20(35): 4884-4890 (2001)). Colon adenocarcinoma HCT116 has elevated mutated β-catenin; however, it was found in the past to be resistant to down regulation of β-catenin (see, e.g., Chan et al., Proc. Natl. Acad. Sci. USA, 99(12): 8265-8270 (2002); and Handeli et al., Mol. Cancer Ther., 7(3): 521-529 (2008)). Colon carcinoma HT-29 has truncated adenomatous polyposis coli (APC) protein, which is a common cause of canonical Wnt pathway activation in colon malignancies. Fibrosarcoma U3A cells are STAT1-negative and have uncharacterized status of Wnt pathway.
(§2) The ability of CT-HC-1 to inhibit growth and to kill cancer cells at different concentrations was further investigated in HeLa, U3A, RKO, HCT-116, and HT-29 cells. The cells were stained with Promega Non-Radioactive Cell Proliferation Assay Kit (MTT) according to the manufacture's protocol. The absorbance of the wells was determined at 544 nm by a FLUOstar/POLARstar Galaxy (BMG Lab Technologies GmbH) Microplate Reader. The assays were performed on control (C) and test (T) cells. Untreated cells were used as a control. Cellular responses were calculated from the data using the following formula: 100×[(T−T0)/(C−T0)] for T>T0 and 100×[(T−T0)/T0] for T<T0. T0 corresponds to cell density at the time of drug addition.

For the next assay, the system named is HeLa cells. The format is cell-based. The conditions noted are these: 48 h. How it is done: as §1, §2
In a further assay the test system is RKO cells. The format is cell-based. The conditions noted are these: 48 h. The protocol:
as §1, §2

For another assay, the system named is U3A cells. The format is cell-based. The conditions noted are these: 48 h. The protocol: as §1, §2
The next assay concerns HCT-116 cells. The format is cell-based, human. The note with it: 48 h. The protocol: as §1, §2
For another assay, the system named is SW480 cells. Briefly: Toxicity (growth inhibition) for SW-480 cells. In kind it is cell-based, human. The arrangement: unit not given here. The protocol:
(§3) Further optimization and testing of inhibitors was performed using this cell line. Table 5 presents toxicity data for select inhibitors for 4T1 cells and human colon cancer cell line SW-480, wherein GI50 is the concentration providing 50% growth inhibition and TGI is the total growth inhibition.

For another assay, the system named is 4T1 cells. Briefly: Toxicity (growth inhibition) for 4T1 cells. In kind it is cell-based, mouse. How it is done:
To identify a mouse model for preclinical development of compounds, mouse cell lines were tested for (1) growth inhibition by the compounds and (2) the levels of constitutive Wnt signaling TCF-reporter activity using transfection of cell with TCF/LEF-responsive firefly luciferase construct. The data further confirmed that sensitivity to compounds correlated well with the levels of canonical Wnt signaling.
Based on the data, mouse breast cancer cell line 4T1 was selected for in vivo testing.
as §3

Assay [1] deals with RKO, HT-29, HCT-116, SW-480, and SW-620 cells. The assay can be described thus: Cell viability of colon cancer cells (FIGS. 2A-C). The format is cell-based. The note with it: increasing concentrations, HT-29, HCT-116, SW-480, SW-620. How it is done: The concentration (μM) of the peptide inhibitor is indicated on the x-axis and the percent viability is indicated on the y-axis.
A similar experiment was performed using RKO, HT-29, HCT-116, SW-480, and SW-620 cells. Colorectal adenocarcinoma SW-480 and SW-620 cells have truncated APC protein, which—as discussed above—is a common cause of canonical Wnt pathway activation in colon malignancies.

The subject of assay [2] is 4T1 mouse breast cancer cells. The assay can be described thus: Colony formation by 4T1 cells. In kind it is cell-based. The note with it: 5 μM and 10 μM. The source says: The activity of compounds in inhibiting colony formation by 4T1 cells was also investigated, which test provides a prediction for compound's potency in vivo.
A further assay concerns the target T1, GFP-tagged beta-catenin (Homo sapiens, UniProt P35222).
T1 construct: made in house; host or cells: HEK293 cells (unpurified lysate)
T1 sequence (P35222 1-781): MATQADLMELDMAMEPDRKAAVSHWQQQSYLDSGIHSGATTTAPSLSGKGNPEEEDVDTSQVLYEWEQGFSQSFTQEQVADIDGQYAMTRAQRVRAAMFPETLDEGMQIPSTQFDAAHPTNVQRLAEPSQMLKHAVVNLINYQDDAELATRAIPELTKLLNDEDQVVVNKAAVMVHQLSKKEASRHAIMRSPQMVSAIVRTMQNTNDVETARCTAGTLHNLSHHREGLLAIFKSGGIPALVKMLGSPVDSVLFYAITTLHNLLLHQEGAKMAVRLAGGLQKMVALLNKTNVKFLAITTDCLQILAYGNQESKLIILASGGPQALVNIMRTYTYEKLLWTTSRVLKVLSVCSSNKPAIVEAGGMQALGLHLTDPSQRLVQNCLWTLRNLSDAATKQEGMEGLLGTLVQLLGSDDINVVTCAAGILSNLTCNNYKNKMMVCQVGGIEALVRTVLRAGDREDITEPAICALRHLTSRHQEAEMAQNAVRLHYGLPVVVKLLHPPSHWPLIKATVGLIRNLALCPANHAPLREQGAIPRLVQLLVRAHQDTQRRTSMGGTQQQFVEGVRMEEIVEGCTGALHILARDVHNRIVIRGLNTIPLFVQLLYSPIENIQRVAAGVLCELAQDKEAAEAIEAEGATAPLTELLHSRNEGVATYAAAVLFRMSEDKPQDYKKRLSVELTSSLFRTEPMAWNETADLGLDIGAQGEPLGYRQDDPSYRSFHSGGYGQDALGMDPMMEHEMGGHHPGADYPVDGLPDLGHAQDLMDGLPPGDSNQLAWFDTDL
The assay can be described thus: Microscale thermophoresis of GFP-tagged beta-catenin. The note with it: HEK293 lysate, membrane-mimicking bicelles, Hill fit. In kind it is binding. The protocol: Briefly, beta-catenin was overexpressed as a GFP-fusion in HEK293 cells. The cells were lysed with ultrasound, and the resulting lysate was mixed with increasing concentrations of CT-HC-5 in the presence of membrane-mimicking bicelles. Thermophoretic mobility was measured in standard capillaries on Monolith NT.115 (NanoTemper Technologies).

Assay [3] concerns HeLa, U3A, RKO, HCT-116, and HT-29 cells. The assay can be described thus: MTT cell number versus concentration (FIG. 1). The format is cell-based. The conditions noted are these: HCT-116, HT-29. How it is done:
as §2

Assay [4] concerns Wnt pathway (TOPflash reporter transcription). The assay can be described thus: TOPflash dual luciferase reporter assay in primary metanephric mesenchyme (MM) cells. In kind it is cell-based. The note with it: 10 μM, 30 min pre-treatment, 24 hours. The protocol:
Primary metanephric mesenchyme (MM) cells were transfected with the Amaxa Nucleofector 96-well Shuttle System (Lonza Group Ltd, Basel, Switzerland). Briefly, 1×10^6 cells per transfection were resuspended in 20 μl of 96-well Nucleofector solutions. TOPflash luciferase plasmid (1 μg) and 0.1 μg pRL-TK-renilla plasmids (Promega, Madison, Wis., USA) were mixed with cell suspensions and transferred to the well of a 96-well Nucleocuvette module. Nucleofections were performed according to manufacturer's instructions using program DN-100.
MM cells were pre-treated with or without CT-HC-1 (10 μM) for 30 min, and then exposed to GSK3 inhibitor BIO (500 nM) or Wnt3a conditioned medium (50%) (Wnt3aCM as described in Willert et al., Nature, 423: 448-452 (2003)) for 24 hours. Cells were lysed and assayed for reporter activity using a Dual luciferase assay system (Promega) and a Monolight 3010 Luminometer (Pharmagen, San Diego, Calif., USA).
A general note: Reporter assays use an easily measured gene product as a stand-in for the process of interest.

For a further assay, the system named is β-catenin. The assay can be described thus: Levels of total β-catenin in MM cells. The format is cell-based. The protocol: Cells were also evaluated for levels of total β-catenin. In these studies, β-catenin was degraded within 3 hours of treatment with CT-HC-1.
Assay [5] concerns MM cells (tubule formation). The assay can be described thus: MM cell differentiation, co-cultivation with embryonic spinal cord inductor. The note with it: MM cells co-cultivated with embryonic spinal cord. In kind it is cell-based. The source says:
(§4) To determine if the loss of β-catenin affects differentiation, MM cells were co-cultivated with inductor, embryonic spinal cord, and treated with CT-HC-1. In these cultures, tubule formation was unaffected. This finding was supported by semi-quantitative RT-PCR analysis of BIO-induced MM cells in which levels of epithelial markers Lim-1 and E-cadherin were unaltered with CT-HC-1 treatment. […] This observation is consistent with reports describing an antagonistic relationship between canonical and non-canonical Wnt mechanisms (see, e.g., Park et al., Development, 132: 2533-2539 (2007); and Schmidt-Ott et al., Development, 132: 3177-3190 (2007).

Assay [6] has as its system Lim-1, E-cadherin, Axin-2 expression. Briefly: Semi-quantitative RT-PCR of marker expression in MM cells. The format is cell-based.
Text: as §4

[7] abbreviates: cells exposed only to peptide, no inductive ligand.

The term GI50 denotes the concentration at which growth is held to half of that of the control. Usually Kd stands for a measure of binding affinity in units of concentration. For `CCCCCCCCCCCCCCCC(=O)N[C@@H](C(=O)N[C@H](CCCNC(=N)N)C(=O)N[C@H](Cc1ccccc1)C(=O)N[C@H](CC(C)C)C(=O)N[C@H](CO)C(=O)N[C@H](CO)C(=O)N[C@@H](C(=O)N[C@H](CC(C)C)C(=O)N[C@H](CCC(=O)O)C(=O)N[C@@H](C(=O)N[C@H](CO)C(=O)N[C@H](CC(C)C)C(=O)N[C@H](CCCNC(=N)N)C(=O)N[C@H](CCCCN)C(=O)N[C@H](CCCCN)C(N)=O)C(C)C)[C@H](C)O)[C@H](C)O` [CT-HC-5, Pal-TRFLSSTLEVSLRKK-NH2] (Palmitoyl-[dT][dR][dF][dL][dS][dS][dT][dL][dE][dV][dS][dL][dR][dK][dK]-NH2), the GI50 stood at 2000 ± 100 nM with HT-29 cells; 1200 ± 90 nM with HeLa cells; 1150 ± 50 nM with RKO cells; 1500 ± 100 nM in the assay on U3A cells; 2400 ± 400 nM in the assay on HCT-116 cells. The “SW480 cells TGI (total growth inhibition)” value in the assay on SW480 cells is recorded as 2.5. Moreover, the 4T1 cells TGI (total growth inhibition) with 4T1 cells is above 5000 nM. Further, the cell viability result in assay [1] was “suppression of cell viability”. Further, in assay [2], the “colony formation by 4T1 cells” value was “inhibited colony formation”. Moreover, the Kd at GFP-tagged beta-catenin came to 2700 ± 200 nM.

In the case of `CCCCCCCCCCCCCCCC(=O)NCCCC[C@H](N)C(=O)N[C@@H](Cc1ccc(O)cc1)C(=O)N[C@@H](CCCCN)C(=O)N[C@@H](CCCCN)C(=O)N[C@@H](CCCNC(=N)N)C(=O)N[C@@H](CC(C)C)C(=O)N[C@@H](CO)C(=O)N[C@H](C(=O)N[C@@H](CCC(=O)O)C(=O)N[C@@H](CC(C)C)C(=O)N[C@H](C(=O)N[C@@H](CO)C(=O)N[C@@H](CO)C(=O)N[C@@H](CC(C)C)C(=O)N[C@@H](Cc1ccccc1)C(=O)N[C@@H](CCCNC(=N)N)C(=O)O)[C@@H](C)O)C(C)C` [CT-HC-1, Pal-ε-KYKKRLSVELTSSLFR] (H-K(Palmitoyl)YKKRLSVELTSSLFR-OH; N-terminus and C-terminus assumed), the GI50 in the assay with HT-29 cells came out at 1400 ± 50 nM; in the assay on HeLa cells, 630 ± 25 nM; in the assay with RKO cells, 1300 ± 50 nM; in the assay on U3A cells, 600 ± 40 nM; in the assay on HCT-116 cells, 3400 ± 250 nM. Also, in the assay with SW480 cells, the “SW480 cells TGI (total growth inhibition)” value is on record as 5. Moreover, the 4T1 cells TGI (total growth inhibition) with 4T1 cells is above 5000 nM. The “cell number as compared to untreated cells” value in assay [3] was “decreased cell numbers in a concentration dependent manner”. Besides, the cell viability entry in assay [1] is reported as “decreased viability”. Moreover, the “BIO-induced transcription (TOPflash reporter)” value in assay [4] (BIO 500 nM) is listed as “completely blocked”. Also, the “Wnt3aCM-induced transcription (TOPflash reporter)” value in [4] (Wnt3a conditioned medium 50%) is reported as “completely blocked”. In addition, the “time of treatment within which β-catenin was degraded” value with β-catenin was at most 3 h. The “β-catenin levels 24 hours after treatment” value in the assay with β-catenin (24 hours) is “had not recovered”. For the same compound, the “β-catenin levels in presence of proteasomal inhibitor MG132” value in the assay on β-catenin (with MG132) is “stabilized”. Further, the tubule formation entry in [5] was “unaffected”. Further, the “levels of epithelial markers Lim-1 and E-cadherin” value in assay [6] (BIO-induced MM cells) is “unaltered”. The Axin-2 expression result in assay [6] (setting [7]) is given as “decrease”. Moreover, the “expression of Lim-1 and E-cadherin” value in [6] (setting [7]) is listed as “enhanced expression”.
